Assay results published in BigSolDB 2.1.

Clc1ccc2c(Cl)ccnc2c1
Settings	solubility (mole fraction)
in THF, 299.4 K	0.0683
in THF, 303.2 K	0.0701
in THF, 309.1 K	0.0745
in THF, 313.3 K	0.081
in THF, 318.1 K	0.0887
in THF, 323.2 K	0.1
in THF, 328.3 K	0.119
in THF, 333.4 K	0.14
in acetone, 299.2 K	0.0591
in acetone, 303.2 K	0.0614
in acetone, 309.1 K	0.0658
in acetone, 313.3 K	0.0725
in acetone, 318.1 K	0.0818
in acetone, 323.2 K	0.0954
in acetone, 328.3 K	0.113
in acetonitrile, 299.8 K	0.00603
in acetonitrile, 303.2 K	0.00814
in acetonitrile, 308.1 K	0.0127
in acetonitrile, 313.3 K	0.0208
in acetonitrile, 318.1 K	0.0307
in acetonitrile, 323.2 K	0.0489
in acetonitrile, 328.3 K	0.0788
in acetonitrile, 333.4 K	0.13
in ethanol, 299.8 K	0.0113
in ethanol, 303.2 K	0.0145
in ethanol, 308.1 K	0.0224
in ethanol, 313.3 K	0.0364
in ethanol, 318.1 K	0.0564
in ethanol, 323.2 K	0.0886
in ethanol, 328.3 K	0.135
in ethanol, 333.4 K	0.208
in water, 298 K	2.84e-05
in water, 303.3 K	2.9e-05
in water, 308.2 K	3.01e-05
in water, 313.1 K	3.21e-05
in water, 318.3 K	3.45e-05
in water, 323.3 K	3.88e-05
in water, 327.7 K	4.2e-05
in water, 333.3 K	4.85e-05
